{
  "source": "paper PMC11597207",
  "about": "“Synthesis and Anti-Inflammatory and Analgesic Potentials of Ethyl 2-(2,5-Dioxo-1-Phenylpyrrolidin-3-yl)-2-Methylpropanoate” (Pharmaceuticals, 2024)",
  "key": {"[1]": {"biological_target": "T1, 5-LOX (Homo sapiens, UniProt P09917)", "T1 construct": "purchased Cayman Chemical Batch No.: A3457", "T1 sequence (P09917 1-674)": "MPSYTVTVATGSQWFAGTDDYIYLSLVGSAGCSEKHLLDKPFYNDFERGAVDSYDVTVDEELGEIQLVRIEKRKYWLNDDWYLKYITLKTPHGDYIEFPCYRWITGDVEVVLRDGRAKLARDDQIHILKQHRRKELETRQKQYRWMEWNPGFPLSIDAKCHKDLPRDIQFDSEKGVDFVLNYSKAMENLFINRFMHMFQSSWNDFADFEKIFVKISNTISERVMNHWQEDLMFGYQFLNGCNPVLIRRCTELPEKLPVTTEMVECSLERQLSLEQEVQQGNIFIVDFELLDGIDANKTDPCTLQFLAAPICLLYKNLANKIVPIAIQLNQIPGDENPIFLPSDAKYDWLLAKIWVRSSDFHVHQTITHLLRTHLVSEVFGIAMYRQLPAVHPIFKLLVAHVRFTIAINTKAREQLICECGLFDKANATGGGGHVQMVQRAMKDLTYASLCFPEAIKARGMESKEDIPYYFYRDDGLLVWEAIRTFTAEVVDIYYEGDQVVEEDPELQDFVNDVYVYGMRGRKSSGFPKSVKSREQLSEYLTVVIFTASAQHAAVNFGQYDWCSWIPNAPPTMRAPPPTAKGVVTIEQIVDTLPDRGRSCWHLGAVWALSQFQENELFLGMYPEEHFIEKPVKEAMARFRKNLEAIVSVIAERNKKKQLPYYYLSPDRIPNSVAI", "test": "5-LOX inhibitory assay", "assay_type": "biochemical", "settings": "read-out: 5-LOX percent inhibition", "procedure": "The activity of MAK01 against the 5-LOX enzyme was investigated using a human recombinant form of 5-LOX [47]. To begin the 5-LOX activity assay, a 10,000 U/mL solution of 5-LOX was prepared in a phosphate buffer with a pH of 6.3. A range of concentrations of the test compounds in the same buffer were prepared for assay. As a substrate for 5-LOX, linoleic acid (80 mM) was diluted with ethyl alcohol and used in the assay. The experiment involved mixing the same amount of both the enzyme solution and the test sample, such as mixing 0.25 mL 5-LOX with 0.25 mL of the compound, both dissolved in buffer. The mixing was followed by incubation at 25 °C for 5 to 10 min. Subsequently, 0.10 mL of the linoleic acid solution was added and allowed to incubate for another 5 min. The absorbance was measured using a UV–visible spectrophotometer at a wavelength of 234 nm, and the percent inhibition was calculated based on the absorbance readings. The same procedure was repeated for different concentrations of the test samples. Zileuton, as a reference drug, was used in comparisons. Using the following formula, the percent inhibition for each sample was calculated: % Inhibition=Abs. of Control−Abs. of Sample/Abs. of Control×100"}, "[2]": {"tested_on": "mice", "test": "Hot plate antinociceptive test", "assay_type": "in vivo", "settings": "dose 5 mg/kg"}, "[3]": {"tested_on": "carrageenan-induced paw edema", "test": "Carrageenan-induced paw edema model", "assay_type": "in vivo", "settings": "mice, dose 10 mg/kg", "procedure": "The anti-inflammatory activity of MAK01 was evaluated through a carrageenan-induced paw edema model. The mice, with weights ranging from 25 to 30 g, were separated into five distinct groups, these being Vehicle Group 1, Aspirin Group 2, and different concentrations of MAK01 in Groups 3–5. Each of these groups comprised five mice. The negative control group in the experiment received a specific solution comprising normal saline, DMSO, and Tween-80. The mixture contained 94% normal saline, 5% DMSO, and 1% Tween-80, delivered at a concentration of 10 mL per kg. In contrast, the positive control group in the assay received the comparator aspirin at a precise dose of 10 mg/kg. The test samples were administered at doses of 10 mg/kg, 20 mg/kg, and 30 mg/kg, given intra-peritoneally. After 30 min, a 2% carrageenan suspension (0.2 mL) was administered to each mouse in every group via a subcutaneous injection in the hind paw. In the experiment, a plethysmometer was used to precisely measure inflammation and edema. These measurements were taken at multiple time points both prior to and following the carrageenan administration. Specifically, the readings were recorded at 1, 2, 3, 4, and 5 h intervals to monitor the progress of the inflammatory response and paw swelling. These obtained results were then compared against the outcomes from the negative control group. The gathered data from the experiment, relating to the impact of the newly synthesized compounds on paw edema, were carefully processed to derive the percentage of edema inhibition. Using the below equation, the percent inhibition was calculated. % Inhibition=Ce−Te/Ce×100\nIn the formula, ‘Ce’ refers to the control group paw edema volume, while ‘Te’ denotes test groups’ paw edema volume."}},
  "data": [
    {"smiles": "CC(c1cc2ccccc2s1)N(O)C(N)=O", "note": "(stereo not drawn) [Zileuton, zileuton, reference compound]", "values": [
      {"measurement": "inhibition at 62.5 µg/mL", "setting": "[1]", "value": 74, "unit": "%"},
      {"measurement": "inhibition at 125 µg/mL", "setting": "[1]", "value": 78, "unit": "%"},
      {"measurement": "inhibition at 250 µg/mL", "setting": "[1]", "value": 81, "unit": "%"},
      {"measurement": "inhibition at 500 µg/mL", "setting": "[1]", "value": 85, "unit": "%"},
      {"measurement": "inhibition at 1000 µg/mL", "setting": "[1]", "value": 94, "unit": "%"}
    ]},
    {"smiles": "CN1CC[C@]23c4c5ccc(O)c4O[C@H]2[C@@H](O)C=C[C@H]3[C@H]1C5", "note": "[Morphine, morphine, reference compound]", "values": [
      {"measurement": "Latency Time (Seconds) on Hot Plate", "setting": "[2]; 30 min", "value": "13.83 ± 0.63", "unit": "s"},
      {"measurement": "Latency Time (Seconds) on Hot Plate", "setting": "[2]; 60 min", "value": "13.52 ± 0.23", "unit": "s"},
      {"measurement": "Latency Time (Seconds) on Hot Plate", "setting": "[2]; 90 min", "value": "13.29 ± 0.78", "unit": "s"},
      {"measurement": "Latency Time (Seconds) on Hot Plate", "setting": "[2]; 120 min", "value": "12.92 ± 0.56", "unit": "s"},
      {"measurement": "Latency Time (Seconds) on Hot Plate", "setting": "[2]; 150 min", "value": "12.59 ± 0.41", "unit": "s"}
    ]},
    {"smiles": "CC(=O)Oc1ccccc1C(=O)O", "note": "[Aspirin, aspirin, reference compound]", "values": [
      {"measurement": "Paw Edema Inhibition in Percent", "setting": "[3]; 1 h", "value": "47.46 ± 0.80", "unit": "%"},
      {"measurement": "Paw Edema Inhibition in Percent", "setting": "[3]; 2 h", "value": "54.42 ± 1.10", "unit": "%"},
      {"measurement": "Paw Edema Inhibition in Percent", "setting": "[3]; 3 h", "value": "55.23 ± 0.73", "unit": "%"},
      {"measurement": "Paw Edema Inhibition in Percent", "setting": "[3]; 4 h", "value": "56.22 ± 1.34", "unit": "%"},
      {"measurement": "Paw Edema Inhibition in Percent", "setting": "[3]; 5 h", "value": "57.57 ± 1.23", "unit": "%"}
    ]}
  ]
}
